The supplement of paper PMC9701192
± gives the uncertainty stated by the source.

How the values were obtained:
Experiment in all cases: mass response relative to vehicle control (EMD distance of treated vs reference mass distribution minus control baseline) (% of mean reference cell mass); higher = larger drug-induced change in single-cell mass distribution (stronger response)
PC9 = system: PC9
Method: (§1)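 Cancer cell lines were treated in vitro with drugs at the listed doses (about 24 h; 0.25% DMSO vehicle). Single-cell buoyant mass was measured on suspended microchannel resonator instruments with CNN image curation, 2500 cells per condition. Mass response is the Earth Mover's Distance to vehicle-treated reference cells as % of mean reference mass.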

MOLM-13 = system: MOLM-13
Method: as §1

MM1S ATCC = system: MM1S ATCC
Method: as §1

## COc1cc([C@@H]2c3cc4c(cc3[C@@H](O[C@@H]3O[C@@H]5CO[C@@H](C)O[C@H]5[C@H](O)[C@H]3O)[C@H]3COC(=O)[C@H]23)OCO4)cc(OC)c1O [Etoposide]
PC9; 0.01 µM
  mass response: 0.492 ± 1.6
PC9; 0.1 µM
  mass response: 0.732 ± 2.1
PC9; 1 µM
  mass response: 12.3 ± 1
PC9; 10 µM
  mass response: 36.2 ± 0.97

## COc1cc2ncnc(Nc3ccc(F)c(Cl)c3)c2cc1OCCCN1CCOCC1 [Gefitinib]
PC9; 0.05 µM
  mass response: 7.94 ± 10
PC9; 0.5 µM
  mass response: 23.1 ± 11
PC9; 5 µM
  mass response: 35.1 ± 9.7
PC9; 50 µM
  mass response: 81.56 ± 0.43

## CCc1nc(C(N)=O)c(Nc2ccc(N3CCC(N4CCN(C)CC4)CC3)c(OC)c2)nc1NC1CCOCC1 [Gilteritinib]
MOLM-13; 0.002 µM
  mass response: -3.18 ± 4.6
MOLM-13; 0.02 µM
  mass response: 13.3 ± 3.4
MOLM-13; 0.2 µM
  mass response: 35 ± 2.9
MOLM-13; 2 µM
  mass response: 33.9 ± 5.4

## CC(=O)[C@]1(O)Cc2c(O)c3c(c(O)c2[C@@H](O[C@H]2C[C@H](N)[C@H](O)[C@H](C)O2)C1)C(=O)c1ccccc1C3=O [Idarubicin]
MOLM-13; 0.001 µM
  mass response: -0.127 ± 1.4
MOLM-13; 0.01 µM
  mass response: 19.1 ± 2.9
MOLM-13; 0.1 µM
  mass response: 33.1 ± 2
MOLM-13; 1 µM
  mass response: 36.6 ± 2.1

## C/C(=C\c1csc(C)n1)[C@@H]1C[C@@H]2O[C@]2(C)CCC[C@H](C)[C@H](O)[C@@H](C)C(=O)C(C)(C)[C@@H](O)CC(=O)N1 [Ixabepilone]
PC9; 0.01 µM
  mass response: 19.5 ± 1.5
PC9; 0.1 µM
  mass response: 37.6 ± 4.5
PC9; 1 µM
  mass response: 36.7 ± 4.5
PC9; 10 µM
  mass response: 36.8 ± 5.7

## CC(C)C[C@H](NC(=O)CNC(=O)c1cc(Cl)ccc1Cl)B(O)O [Ixazomib]
MM1S ATCC; 0.00025 µM
  mass response: 2.33 ± 1.5
MM1S ATCC; 0.0025 µM
  mass response: -0.705 ± 2.2
MM1S ATCC; 0.025 µM
  mass response: 10.7 ± 0.64
MM1S ATCC; 0.25 µM
  mass response: 9.05 ± 2.4

## Nc1cccc2c1CN(C1CCC(=O)NC1=O)C2=O (centres undefined) [Lenalidomide]
MM1S ATCC; 0.1 µM
  mass response: 1.82 ± 5.2
MM1S ATCC; 1 µM
  mass response: 4.81 ± 3.5
MM1S ATCC; 10 µM
  mass response: 4.13 ± 1.8
MM1S ATCC; 0.0001 M
  mass response: 14.4 ± 1.9

## N[C@@H](Cc1ccc(N(CCCl)CCCl)cc1)C(=O)O [Melphalan]
MM1S ATCC; 0.1 µM
  mass response: 9.64 ± 4.4
MM1S ATCC; 1 µM
  mass response: 17.5 ± 4.6
MM1S ATCC; 10 µM
  mass response: 12.9 ± 2.5
MM1S ATCC; 50 µM
  mass response: 29.6 ± 1.6

## CO[C@@H]1[C@H](N(C)C(=O)c2ccccc2)C[C@H]2O[C@]1(C)n1c3ccccc3c3c4c(c5c6ccccc6n2c5c31)C(=O)NC4 [Midostaurin]
MOLM-13; 0.02 µM
  mass response: 14.9 ± 0.91
MOLM-13; 0.2 µM
  mass response: 38.7 ± 1.5
MOLM-13; 2 µM
  mass response: 27.7 ± 0.98
MOLM-13; 20 µM
  mass response: 30.2 ± 2.4

## C=CC(=O)Nc1cc(Nc2nccc(-c3cn(C)c4ccccc34)n2)c(OC)cc1N(C)CCN(C)C [Osimertinib]
PC9; 0.05 µM
  mass response: 11.8 ± 3
PC9; 0.5 µM
  mass response: 9.37 ± 6.4
PC9; 5 µM
  mass response: 7.62 ± 2.4
PC9; 50 µM
  mass response: 65.8 ± 0.9

## CC(=O)O[C@H]1C(=O)[C@@]2(C)[C@H]([C@H](OC(=O)c3ccccc3)[C@]3(O)C[C@H](OC(=O)[C@H](O)[C@@H](NC(=O)c4ccccc4)c4ccccc4)C(C)=C1C3(C)C)[C@]1(OC(C)=O)CO[C@@H]1C[C@@H]2O [Paclitaxel]
PC9; 0.005 µM
  mass response: 0.247 ± 0.78
PC9; 0.025 µM
  mass response: 26.9 ± 1.3
PC9; 0.05 µM
  mass response: 30.7 ± 0.9
PC9; 0.1 µM
  mass response: 30.6 ± 1.4

## Nc1cccc2c1C(=O)N(C1CCC(=O)NC1=O)C2=O (centres undefined) [Pomalidomide]
MM1S ATCC; 0.02 µM
  mass response: 8.45 ± 2.3
MM1S ATCC; 0.2 µM
  mass response: 18.1 ± 5.3
MM1S ATCC; 2 µM
  mass response: 17.1 ± 5.7
MM1S ATCC; 20 µM
  mass response: 16.7 ± 3.2

## CC(C)(C)c1cc(NC(=O)Nc2ccc(-c3cn4c(n3)sc3cc(OCCN5CCOCC5)ccc34)cc2)no1 [Quizartinib]
MOLM-13; 0.0001 µM
  mass response: 1.17 ± 1.9
MOLM-13; 0.001 µM
  mass response: 16.3 ± 0.82
MOLM-13; 0.01 µM
  mass response: 27 ± 0.32
MOLM-13; 0.1 µM
  mass response: 25.8 ± 0.77

## CNC(=O)c1cc(Oc2ccc(NC(=O)Nc3ccc(Cl)c(C(F)(F)F)c3)c(F)c2)ccn1 [Regorafenib]
MM1S ATCC; 0.04 µM
  mass response: 1.84 ± 1.4
MM1S ATCC; 0.4 µM
  mass response: 0.733 ± 1.4
MM1S ATCC; 4 µM
  mass response: 10.9 ± 0.83
MM1S ATCC; 20 µM
  mass response: 44.9 ± 2.9

## O=C(/C=C\n1cnc(-c2cc(C(F)(F)F)cc(C(F)(F)F)c2)n1)NNc1cnccn1 [Selinexor]
MM1S ATCC; 0.005 µM
  mass response: -0.878 ± 0.35
MM1S ATCC; 0.05 µM
  mass response: 4.05 ± 1.2
MM1S ATCC; 0.5 µM
  mass response: 12.7 ± 3.1
MM1S ATCC; 5 µM
  mass response: 12 ± 3.1

## CNC(=O)c1cc(Oc2ccc(NC(=O)Nc3ccc(Cl)c(C(F)(F)F)c3)cc2)ccn1 [Sorafenib]
MOLM-13; 0.0005 µM
  mass response: -1.17 ± 0.94
MOLM-13; 0.005 µM
  mass response: 10.6 ± 1
MOLM-13; 0.05 µM
  mass response: 32 ± 0.86
MOLM-13; 0.5 µM
  mass response: 35.2 ± 0.46
